Test: Solubility of electron donor dye precursors in ethyl acetate
Type: physicochemical
Description: For reference, the following Table 1 lists electron donor dye precursor compounds, and includes the corresponding solubility in ethyl acetate, which are used in the following examples.

SMILES	Solubility in ethyl acetate [g/100 grams]
CCN(CC)c1ccc2c(c1)Oc1cc(C)ccc1C21OC(=O)c2ccccc21 [Sample D-2]	5
CCN(CC)c1ccc2c(c1)Oc1cc(C)c(Nc3ccccc3)cc1C21OC(=O)c2ccccc21 [Sample D-3]	4
CCCCCCOc1ccc2c(c1)Oc1cc(OCCCCCC)ccc1C21OC(c2cccs2)=Nc2ccccc21 [Sample D-5]	20
